Assay [1] deals with WT EZH2 (Homo sapiens (Human), UniProt Q15910). As to the kind of experiment: WT EZH2 nucleosome assay (10X SAM, high SAM conditions). The assay is classed as biochemical. To be noted: 15 uM SAM, Ki app from competitive inhibition fit. On the procedure: (§1) The genes for EZH2, EED, SUZ12, and RBBP4 proteins were cloned into pBacPAK9 vectors (Clontech). RBBP4 was FLAG tagged on the N-terminal end. The baculovirus expressions of these proteins were used to co-infect SF9 insect cells. Insect cell pellets were lysed in a buffer containing 25 mM Tris pH8.0, 300 mM NaCl, 0.5 mM TCEP, complete EDTA-free protease inhibitor (Roche), 0.1% NP-40. The supernatant from the lysate was incubated with FLAG® M2 antibody resin (Sigma). The resin was washed on the chromatography column and eluted with 0.2 mg/ml FLAG peptide. The elute was incubated with omnicleave nucleases (Epicentre Technologies) at 4° C. overnight, then concentrated and loaded onto a Superdex 200 (GE Healthcare) column. The Superdex 200 column was eluted with 25 mM Tris pH8.0, 150 mM NaCl, 0.5 mM TCEP. Fractions containing the PRC2 complex were pooled.
(§2) A. Compound preparation • 1.
(§3) B. Reagent preparation • 1. […] Dilute TCA to 20% in DI water
(§4) C. Enzyme reaction • 1. […] Some compounds were tested under high SAM conditions.
(§5) D. Data analysis • 1. IC50 values were determined by fitting the data to a 4-parameter IC50 equation using proprietary curve fitting software. • 2. For compounds tested under high SAM conditions, Ki^app values were obtained by fitting the dose response curve to a model for competitive inhibition using proprietary curve fitting software. Preparation of HeLa Oligonucleosomes: Reagents • Cell Pellet: 15 L HeLa S3 (Accelgen)+6 L HeLa S3 (in house) • Mnase (Worthington Biochemicals) Equipment • SW-28 Rotor • Dounce Homogenizer/B Pestle Buffers • Lysis: 20 mM Hepes pH 7.5, 0.25M Sucrose, 3 mM MgCl2, 0.5% Nonidet P-40, 0.5 mM TCEP, 1 Roche Protease Tablet • B: 20 mM Hepes pH7.5, 3 mM MgCl2, 0.5 mM EDTA, 0.5 mM TCEP, 1 Roche Protease Tablet • MSB: 20 mM Hepes pH7.5, 0.4 M NaCl, 1 mM EDTA, 5% v/v Glycerol, 0.5 mM TCEP, 0.2 mM PMSF • LSB: 20 mM Hepes pH7.5, 0.1M NaCl, 1 mM EDTA, 0.5 mM TCEP, 0.2 mM PMSF • NG: 20 mM Hepes pH7.5, 1 mM EDTA, 0.4 m NaCl, 0.2 mM PMSF, 0.5 mM TCEP • Storage: 20 mM Hepes pH7.5, 1 mM EDTA, 10% Glycerol, 0.2 mM PMSF, 0.5 mM TCEP Protocol

The target in assay [2] is EZH2 Mutant Y641N (Homo sapiens (Human), UniProt Q15910, Y641N). As to the kind of experiment: EZH2 Mutant Y641N nucleosome assay. To be noted: PRC2 4-protein complex 6 nM, 1.5 μM SAM, HeLa oligonucleosomes. The assay is classed as biochemical. On the procedure:
as §1, §2, §3, §4, §5

The mark [3] stands for this setting: read-out: WT EZH2 Nucleosome assay (10X SAM) Ki.
The mark [4] stands for this setting: read-out: EZH2 Mutant Y641N Nucleosome assay IC50.
Where [5] appears, read: WT EZH2 Nucleosome assay (10X SAM) Ki (μM).
[6] abbreviates: EZH2 Mutant Y641N Nucleosome assay IC50 (μM).

Where two headings read alike, the source gives them in different places.

EZH2 Mutant Y641N, sequence (Q15910 whole entry Y641N, looked up): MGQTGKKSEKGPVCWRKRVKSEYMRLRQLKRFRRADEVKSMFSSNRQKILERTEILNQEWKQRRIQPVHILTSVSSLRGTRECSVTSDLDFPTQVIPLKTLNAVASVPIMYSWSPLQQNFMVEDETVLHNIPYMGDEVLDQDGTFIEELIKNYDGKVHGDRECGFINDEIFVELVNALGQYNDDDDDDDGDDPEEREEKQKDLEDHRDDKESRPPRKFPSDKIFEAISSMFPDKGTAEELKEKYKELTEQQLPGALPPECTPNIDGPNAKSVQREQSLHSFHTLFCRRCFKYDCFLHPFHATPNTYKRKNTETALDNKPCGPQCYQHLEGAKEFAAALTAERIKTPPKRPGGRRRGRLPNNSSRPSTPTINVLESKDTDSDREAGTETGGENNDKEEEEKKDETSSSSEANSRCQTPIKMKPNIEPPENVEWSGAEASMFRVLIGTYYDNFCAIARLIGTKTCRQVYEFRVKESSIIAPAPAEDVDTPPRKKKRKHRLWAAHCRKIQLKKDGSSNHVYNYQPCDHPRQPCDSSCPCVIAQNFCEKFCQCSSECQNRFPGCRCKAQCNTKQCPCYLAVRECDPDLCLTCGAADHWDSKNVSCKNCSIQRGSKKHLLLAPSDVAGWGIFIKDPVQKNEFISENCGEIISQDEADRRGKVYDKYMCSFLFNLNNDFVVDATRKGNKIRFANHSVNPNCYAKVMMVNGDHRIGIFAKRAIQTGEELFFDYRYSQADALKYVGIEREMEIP
EZH2 Mutant Y641N, sequence (O75530 whole entry partner, looked up): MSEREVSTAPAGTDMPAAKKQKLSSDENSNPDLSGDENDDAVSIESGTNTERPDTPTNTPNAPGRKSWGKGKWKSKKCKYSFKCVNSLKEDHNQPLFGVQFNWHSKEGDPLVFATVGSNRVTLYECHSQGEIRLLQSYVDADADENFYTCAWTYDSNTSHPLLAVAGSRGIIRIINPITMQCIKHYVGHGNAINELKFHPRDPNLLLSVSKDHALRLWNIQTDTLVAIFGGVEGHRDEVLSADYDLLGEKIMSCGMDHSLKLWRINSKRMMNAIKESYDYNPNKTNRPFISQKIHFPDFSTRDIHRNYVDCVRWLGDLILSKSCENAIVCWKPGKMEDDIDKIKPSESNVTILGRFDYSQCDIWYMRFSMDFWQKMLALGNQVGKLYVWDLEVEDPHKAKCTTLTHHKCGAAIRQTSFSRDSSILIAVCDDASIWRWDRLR
EZH2 Mutant Y641N, sequence (Q15022 whole entry partner, looked up): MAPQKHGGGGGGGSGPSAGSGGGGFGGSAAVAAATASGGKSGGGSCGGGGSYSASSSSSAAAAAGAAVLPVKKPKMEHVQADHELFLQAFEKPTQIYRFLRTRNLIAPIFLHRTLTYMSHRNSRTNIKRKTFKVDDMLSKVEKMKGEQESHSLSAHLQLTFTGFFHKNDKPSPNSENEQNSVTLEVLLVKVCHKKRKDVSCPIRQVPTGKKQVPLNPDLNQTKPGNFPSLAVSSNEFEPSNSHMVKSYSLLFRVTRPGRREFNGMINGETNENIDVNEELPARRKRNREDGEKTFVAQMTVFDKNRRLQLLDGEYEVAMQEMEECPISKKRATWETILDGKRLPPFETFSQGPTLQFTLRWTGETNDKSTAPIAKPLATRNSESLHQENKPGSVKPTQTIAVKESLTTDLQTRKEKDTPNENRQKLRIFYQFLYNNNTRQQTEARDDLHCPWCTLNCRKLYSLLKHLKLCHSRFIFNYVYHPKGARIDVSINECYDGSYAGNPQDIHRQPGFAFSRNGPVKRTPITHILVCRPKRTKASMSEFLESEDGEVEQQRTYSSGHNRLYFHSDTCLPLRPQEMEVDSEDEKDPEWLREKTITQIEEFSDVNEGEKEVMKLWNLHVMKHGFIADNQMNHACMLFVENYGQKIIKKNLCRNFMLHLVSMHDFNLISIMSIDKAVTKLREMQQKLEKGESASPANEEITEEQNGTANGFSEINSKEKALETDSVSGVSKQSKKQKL
EZH2 Mutant Y641N, sequence (Q09028 whole entry partner, looked up): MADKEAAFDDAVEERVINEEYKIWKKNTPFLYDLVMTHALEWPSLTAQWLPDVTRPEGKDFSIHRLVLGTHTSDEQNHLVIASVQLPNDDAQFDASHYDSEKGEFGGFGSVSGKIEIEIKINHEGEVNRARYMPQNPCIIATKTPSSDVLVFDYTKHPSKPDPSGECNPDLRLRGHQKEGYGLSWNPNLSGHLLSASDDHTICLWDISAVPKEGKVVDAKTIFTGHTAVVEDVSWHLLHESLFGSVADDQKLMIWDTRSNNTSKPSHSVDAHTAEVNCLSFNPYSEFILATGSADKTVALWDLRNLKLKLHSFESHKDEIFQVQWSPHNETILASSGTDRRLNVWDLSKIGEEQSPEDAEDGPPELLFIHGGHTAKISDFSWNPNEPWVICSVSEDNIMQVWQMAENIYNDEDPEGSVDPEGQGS
WT EZH2, sequence (Q15910 whole entry, looked up): as the sequence (Q15910 whole entry Y641N, looked up) above, with N641Y counted along it
WT EZH2, sequence (O75530 whole entry partner, looked up): as the sequence (O75530 whole entry partner, looked up) above
WT EZH2, sequence (Q15022 whole entry partner, looked up): as the sequence (Q15022 whole entry partner, looked up) above
WT EZH2, sequence (Q09028 whole entry partner, looked up): as the sequence (Q09028 whole entry partner, looked up) above

By IC50 is commonly meant the concentration that gives 50% inhibition. As to `COc1cc(C)[nH]c(=O)c1CN1CCc2c(Cl)cc(C(C)C3CCN(C(=O)CO)CC3)c(Cl)c2C1=O` (single isomer, unassigned) [Example 200], the Ki in assay [1] (setting [3]) turned out to be 0.1 nM. The IC50 in assay [2] (setting [4]) stood at 0.002 µM.

The molecule `COc1cc(C)[nH]c(=O)c1CN1CCc2c(Cl)cc(C(OC)C3CCOC3)c(Cl)c2C1=O` (single isomer, unassigned) [Example 127] showed a Ki in assay [1] (setting [5]) of 0.2 nM. Besides, the IC50 in assay [2] (setting [6]) turned out to be 0.0022 µM.

Take `COC(c1ccc2c(c1Cl)C(=O)N(Cc1c(C)cc(C)[nH]c1=O)CC2)C1CCOC1` (single isomer, unassigned) [Example 134]: the Ki in assay [1] (setting [3]) worked out at 131 nM. Besides, the IC50 in assay [2] (setting [4]) turned out to be 1.93 µM.

With `Cc1cc(C)c(CN2CCc3c(Cl)cc(C(CO)O[C@@H]4CCOC4)c(Cl)c3C2=O)c(=O)[nH]1` (single isomer, unassigned) [Example 103], in assay [1] (setting [3]), the Ki was 52 nM. Besides, in assay [2] (setting [4]), the IC50 came out at 0.32 µM.

For `COC(c1cc(Cl)c2c(c1Cl)C(=O)N(Cc1c(C)cc(C)[nH]c1=O)CC2)C1CCS(=O)(=O)C1` (single isomer, unassigned) [Example 150], in assay [1] (setting [3]), the Ki was 0.1 nM. The IC50 in assay [2] (setting [4]) came to 0.003 µM.

Turning to `Cc1cc(C)c(CN2CCc3c(Cl)cc([C@@H](CO)[C@@H]4CCCO4)c(Cl)c3C2=O)c(=O)[nH]1` [Example 46], in assay [1] (setting [3]), the Ki amounted to 121 nM. Also, the IC50 in assay [2] (setting [4]) was found to be 0.423 µM.

The molecule `CCC(OC)c1cc(Cl)c2c(c1Cl)C(=O)N(Cc1c(C)cc(C)[nH]c1=O)CC2` (single isomer, unassigned) [Example 15, 5,8-dichloro-2-[(4,6-dimethyl-2-oxo-1,2-dihydropyridin-3-yl)methyl]-7-(1-methoxypropyl)-3,4-dihydroisoquinolin-1(2H)-one] displayed a Ki in assay [1] (setting [5]) of 3 nM. The molecule also showed an IC50 in assay [2] (setting [6]) of 0.019 µM.

On to `Cc1cc(C)c(CN2CCc3c(Cl)cc(C(C)N4CCOCC4)c(Cl)c3C2=O)c(=O)[nH]1` (racemic) [Example 89, (±)-5,8-dichloro-2-[(4,6-dimethyl-2-oxo-1,2-dihydropyridin-3-yl)methyl]-7-[1-(morpholin-4-yl)ethyl]-3,4-dihydroisoquinolin-1(2H)-one], for which the Ki in assay [1] (setting [3]) came to 8 nM. Also, in assay [2] (setting [4]), the IC50 was found to be 0.088 µM.

With `Cc1cc(C)c(CN2CCc3c(Cl)cc(C(C)C4CN(C)C4)c(Cl)c3C2=O)c(=O)[nH]1` (single isomer, unassigned) [Example 188], the Ki in assay [1] (setting [3]) was 14 nM. In assay [2] (setting [4]), the IC50 turned out to be 0.151 µM.

With `Cc1cc(C)c(CN2CCc3c(C)cc(C(C)C4CN(S(C)(=O)=O)C4)c(Cl)c3C2=O)c(=O)[nH]1` (single isomer, unassigned) [Example 194], the Ki in assay [1] (setting [3]) was found to be 44 nM. The IC50 in assay [2] (setting [4]) stood at 0.309 µM.

In the case of `COc1cc(C)[nH]c(=O)c1CN1CCc2c(Cl)cc(C(OC)C3CCN(C(C)=O)CC3)c(Cl)c2C1=O` (single isomer, unassigned) [Example 122], the Ki in assay [1] (setting [3]) came out at 73 nM. Moreover, the IC50 in assay [2] (setting [4]) is 0.236 µM.

`Cc1cc(C)c(CN2CCc3c(Cl)cc(C(C)C4CN(S(C)(=O)=O)C4)c(Cl)c3C2=O)c(=O)[nH]1` (single isomer, unassigned) [Example 185]: in assay [1] (setting [3]), the Ki came out at 1 nM. Moreover, the IC50 in assay [2] (setting [4]) was determined as 0.012 µM.

For `COC(c1cc(Cl)c2c(c1Cl)C(=O)N(Cc1c(C)cc(C)[nH]c1=O)CC2)C(C)O` (centres unmarked) [Example 102], in assay [1] (setting [3]), the Ki came out at 18 nM. In addition, the half-maximal inhibitory concentration (IC50) in assay [2] (setting [4]) was determined as 0.178 µM.

`Cc1cc(C)c(CN2CCc3c(C)cc(C(C)C4COC4)c(Cl)c3C2=O)c(=O)[nH]1` (single isomer, unassigned) [Example 196]: the Ki in assay [1] (setting [3]) is 0.2 nM. Further, in assay [2] (setting [4]), the IC50 worked out at 0.003 µM.

Consider `COC(c1cc(Br)c2c(c1Cl)C(=O)N(Cc1c(C)cc(C)[nH]c1=O)CC2)C1CCN(C)CC1` (single isomer, unassigned) [Example 146], for which the Ki in assay [1] (setting [3]) amounted to 0.1 nM. In assay [2] (setting [4]), the 50% inhibitory concentration (IC50) is 0.0035 µM.

Turning to `Cc1cc(C)c(CN2CCc3c(Cl)cc([C@@H](CC#N)[C@@H]4CCOC4)c(Cl)c3C2=O)c(=O)[nH]1` (single isomer, unassigned) [Example 54], in assay [1] (setting [3]), the Ki amounted to 4 nM. The IC50 in assay [2] (setting [4]) is 0.012 µM.

In the case of `CCC(OC)c1cc(Cl)c2c(c1Cl)C(=O)N(Cc1c(C)cc(C)[nH]c1=O)CC2` (single isomer, unassigned) [Example 16, 5,8-dichloro-2-[(4,6-dimethyl-2-oxo-1,2-dihydropyridin-3-yl)methyl]-7-(1-methoxypropyl)-3,4-dihydroisoquinolin-1(2H)-one], the Ki in assay [1] (setting [5]) was found to be 4 nM. In addition, the IC50 in assay [2] (setting [6]) stood at 0.04 µM.

On to `Cc1cc(C)c(CN2CCc3c(Cl)cc(C(CO)N4CC[C@H](F)C4)c(Cl)c3C2=O)c(=O)[nH]1` (single isomer, unassigned) [Example 63], for which the Ki in assay [1] (setting [3]) was 528 nM. Besides, the IC50 in assay [2] (setting [4]) worked out at 4.1 µM.

For the molecule `COc1cc(C)[nH]c(=O)c1CN1CCc2c(C)cc(C(C)C3COC3)c(Cl)c2C1=O` (single isomer, unassigned) [Example 198], in assay [1] (setting [3]), the Ki amounted to 0.01 nM. In addition, in assay [2] (setting [4]), the IC50 came out at 0.001 µM.

Regarding `CCC(OC)c1cc(Cl)c2c(c1Cl)C(=O)N(Cc1c(OC)cc(C)[nH]c1=O)CC2` (single isomer, unassigned) [Example 107], the Ki in assay [1] (setting [3]) was 1.9 nM. The IC50 in assay [2] (setting [4]) was determined as 0.018 µM.

Take `Cc1cc(C)c(CN2CCc3c(Cl)cc(C(CO)O[C@@H]4CCOC4)c(Cl)c3C2=O)c(=O)[nH]1` (single isomer, unassigned) [Example 104]: the Ki in assay [1] (setting [3]) amounted to 673 nM. Besides, the IC50 in assay [2] (setting [4]) is 7.77 µM.

In assay [1] (setting [5]), `[2H]C([2H])([2H])OC(c1cc(Cl)c2c(c1Cl)C(=O)N(Cc1c(C)cc(C)[nH]c1=O)CC2)C1CCN(C(=O)CO)CC1` (single isomer, unassigned) [Example 164] registered a Ki of 200 nM. In addition, inhibition in assay [2] (setting [6]) was half-maximal at 1.97 µM (IC50).

Turning to `COc1cc(C)[nH]c(=O)c1CN1CCc2c(C)cc([C@H](OC)[C@H]3CCOC3)c(Cl)c2C1=O` (single isomer, unassigned) [Example 84, 8-chloro-2-[(4-methoxy-6-methyl-2-oxo-1,2-dihydropyridin-3-yl)methyl]-7-{(R*)-methoxy[(3S*)-tetrahydrofuran-3-yl]methyl}-5-methyl-3,4-dihydroisoquinolin-1(2H)-one], the Ki in assay [1] (setting [3]) is 0.2 nM. In addition, in assay [2] (setting [4]), the IC50 worked out at 0.002 µM.

Regarding `COC(c1cc(Cl)c2c(c1Cl)C(=O)N(Cc1c(C)cc(C)[nH]c1=O)CC2)C1CCNCC1` (single isomer, unassigned) [Example 167], the Ki in assay [1] (setting [3]) came out at 62 nM. For the same molecule, in assay [2] (setting [4]), the IC50 turned out to be 0.85 µM.

Take `COC(c1cc(Cl)c2c(c1Cl)C(=O)N(Cc1c(C)cc(C)[nH]c1=O)CC2)C1CCNCC1` (single isomer, unassigned) [Example 166]: the Ki in assay [1] (setting [3]) is 0.2 nM. Also, the IC50 in assay [2] (setting [4]) was determined as 0.002 µM.

Regarding `COC(c1cc(Cl)c2c(c1Cl)C(=O)N(Cc1c(C)cc(C)[nH]c1=O)CC2)C1CN(C)C1` (single isomer, unassigned) [Example 174], the Ki in assay [1] (setting [3]) is 0.6 nM. Besides, the IC50 in assay [2] (setting [4]) came out at 0.013 µM.

Turning to `COc1cc(C)[nH]c(=O)c1CN1CCc2c(C)cc(C(OC)C3COC3)c(Cl)c2C1=O` (single isomer, unassigned) [Example 144], the Ki in assay [1] (setting [3]) came to 0.2 nM. In addition, the IC50 in assay [2] (setting [4]) was determined as 0.005 µM.

In the case of `Cc1cc(C)c(CN2CCc3c(Cl)cc(C(CO)N4CCCC4)c(Cl)c3C2=O)c(=O)[nH]1` (racemic) [Example 57], the Ki in assay [1] (setting [3]) amounted to 406 nM. In addition, the IC50 in assay [2] (setting [4]) was 1.35 µM.

For `COC(c1cc(Br)c2c(c1Cl)C(=O)N(Cc1c(C)cc(C)[nH]c1=O)CC2)C1CCN(C)CC1` (single isomer, unassigned) [Example 147], in assay [1] (setting [3]), the Ki came out at 128 nM. For the same molecule, the IC50 in assay [2] (setting [4]) came out at 0.543 µM.

Consider `Cc1cc(C)c(CN2CCc3c(Cl)cc(C(C)C4CNC4)c(Cl)c3C2=O)c(=O)[nH]1` (single isomer, unassigned) [Example 189], for which the Ki in assay [1] (setting [3]) came out at 0.7 nM. Besides, in assay [2] (setting [4]), the IC50 was found to be 0.006 µM.

`Cc1cc(C)c(CN2CCc3c(Cl)cc(C(CO)N4CCOCC4)c(Cl)c3C2=O)c(=O)[nH]1` (racemic) [Example 60]: in assay [1] (setting [3]), the Ki was found to be 31 nM. Also, the IC50 in assay [2] (setting [4]) is 0.18 µM.

These data come from patent publication US10570121B2, “Substituted dihydroisoquinolinone compounds” (priority 2014, dated 2020).
